Entries after “also recorded” stand apart in the source; their conditions may differ.

For one test, the system named is antibody to HIV-1. In words: EIA of p24 synthetic peptide-BSA conjugates with serum pools and individual sera. The class given is binding, human. As for the experimental part:
(§1) The free peptides or peptide-protein conjugates of Figures 1-13 were initially screened for immunoreactivity by coating each well of polystyrene microtiter EIA plates (Costar, Cambridge, Massachusetts, U.S.A.) with 0.2 ml amounts of concentrations of 5-50 micrograms/ml peptide in Tris buffer, 10 mM, pH 8.0, at 4°C overnight. Peptides or peptide-protein conjugates showing immunoreactivity by EIA were then further diluted for coating to determine the minimal concentrations required that allowed maximal immunoreactivity with antibodies to HIV, and minimal nonspecific reactivity with normal sera. The EIA tests were performed as follows: The coating solution was removed from each well and the wells were blocked at 37°C for 30 minutes with a solution of 50 mM phosphate, 100 mM NaCl, pH 7.4, 1% BSA, 0.5% gelatin. The wells were then aspirated dry with a microtiter plate washer and washed 3 times with a solution of 50 mM phosphate, 100 mM NaCl, .05% Tween 20, (trademark) pH 7.4 (PBST). A 1:101 dilution (in PBST with 1% BSA, 1% NRS) of the primate serum to be tested was then added as 0.2 ml to each washed well and the plates were incubated at 37°C for 30 minutes. The plates were then washed x 3 with PBST, and 0.2 ml amounts of a 1:2000 dilution of goat anti-human (GAH) peroxidase enzyme conjugate (Organon Teknika, Cappel, Melvern, Pennsylvania, U.S.A.) that recognized human IgG, IgA, and IgM were added to each well, and the plates were incubated for 30 minutes at 37°C. The plates were then washed x 3 with PBST and incubated with 0.2 ml/well substrate consisting of 0,1M citric acid pH 5.2, 0.1 mg/ml o-phenylene diamine, 0.01% H₂O₂, at room temperature in the dark for 10 minutes. Reactions were stopped with 50 microliters of 4N H₂SO₄, and the color development was quantitated in a Multiscan plate reader at A₄₉₂. In each series of experiments positive and negative controls were included, and all tests were done in duplicate or quadruplicate. Most peptides and peptide conjugates were initially screened against a 1:101 dilution of pools of HIV positive or HIV negative sera, and the same serum pool was used to allow quantitative comparison of immunoreactivity of different free peptides or peptide-protein conjugates.
Figure 8 illustrates the immunoreactivity and AA sequences of synthetic peptides of the p24 protein of HIV-1, when conjugated to BSA via their C-termini using SMCC, and reacted with a pool of approximately 50 sera from persons containing antibody to HIV-1, or with a pool of approximately 30 sera from individuals devoid of antibody to HIV-1. […] No negative sera (0/85, 0%) reacted, and 17 positive sera (17/98, 17%) were immunoreactive. It has been reported that individuals lose antibodies to p24 during the course of progression from asymptomatic infection to clinical disease and AIDS (Franchini et al., Blood 69:(2):437-441, 1987, and Weber et al., Lancet i:119-122, 1987), which may explain the lower frequency of antibodies to this peptide in the sera tested.

Test [1] concerns antibodies to HIV-1. Kind of test: EIA of HIV-1 gp41 peptide-protein conjugates against serum pools. To be noted: peptide conjugated via C-terminus to BSA (SMCC), coated at 10 micrograms peptide/ml; 1:101 dilution of HIV+ serum pool; Figure 1. The class given is binding, human. As for the experimental part: as §1
The peptides in Figures 1 and 5 were synthesized as described in Example 1 and conjugated to KLH or BSA as described in Example 2. These peptide-protein conjugates were coated to polystyrene microtiter plates all at a concentration 10 micrograms peptide/ml and evaluated for immunoreactivity as described in Example 3, using a 1:101 dilution of a pool of sera (HIV+/SIV+, respectively) containing antibodies to HIV-1 (Figure 1) or to HIV-2 (Figure 5), as well as pooled serum (HIV-/SIV-, respectively) containing no antibodies to HIV-1 or HIV-2. […] Since sera from patients infected with HIV-2 are relatively unavailable in the United States, the immunoreactivity of HIV-2 synthetic peptides was assessed using serum from macaques infected with SIV, obtained from the University of Washington Primate Center, Seattle, Washington, U.S.A. The AA sequence of SIV is nearly identical to HIV-2 in the region of the peptides synthesized (see Myers et al., Human Retroviruses and AIDS, 1988. A compilation of nucleic acid and amino acid sequences. Los Alamos National Laboratory, Los Alamos, New Mexico, 87545, USA).

Test [2] deals with antibodies to HIV-1. In words: EIA of peptide-carrier conjugates with individual human sera. Type of test: binding. To be noted: BSA-SMCC conjugate. As for the experimental part: as §1
Figure 10A illustrates the immunoreactivity of synthetic natural peptides 2S06 and 2S09 (Figure 1) when conjugated via their C-terminal GC spacer to KLH using the heterobifunctional linker MBS. […] However, the immunoreactivity of many of the positives was low (A₄₉₂ less than 1.0), and some of the negative samples had A₄₉₂ values slightly above 0.20, resulting in minimal discrimination between negatives and positives. This poor discrimination led to a search for an improved carrier protein and/or linker.
Figure 10B illustrates the reactivity of synthetic natural peptide IWGCSGKLICTTAVPGC (2S09) when conjugated through its C-terminus to BSA via the heterobifunctional linker SMCC. […] Improvement in assay performance as compared with results of Example 5A is noted with respect to negative samples having lower A₄₉₂ values, and most positive samples having higher A₄₉₂ values. […] Because of the possibility that some of the low responsiveness might be due to antigenic differences of genetic variants in the region of this epitope, as reported for HIV isolates from Zaire (Gnann et al., Science 237:1346-1349, 1987), the natural sequence variant peptide 5S67 (Figure 3) was synthesized, chemically linked to BSA with SMCC, and tested against the same sera, plus one additional negative serum sample (Figure 10C). […] This instigated a search for unnatural sequence variants of peptide 2S09 that would retain high immunoreactivity with most sera that contained antibodies to HIV-1, and yet retain low reactivity with sera devoid of antibodies to HIV. […]

[3] abbreviates: BSA-SMCC conjugate, 85 individual sera without antibodies to HIV-1.
[4] abbreviates: BSA-SMCC conjugate, 98 individual sera with antibodies to HIV-1.

Regarding ALGPAATLEEMMTACGC [5S94], in the test with antibody to HIV-1 (setting [3]), the “negative sera that reacted” value was 0/85 and the “negative sera that reacted (percent)” value is reported as 0%. Moreover, in the test with antibody to HIV-1 (setting [4]), the positive sera immunoreactive is reported as 17/98 and the “positive sera immunoreactive (percent)” value is 17%. In addition, the “immunoreactivity with serum pools” value in the test with antibody to HIV-1 (BSA-SMCC conjugates, pool of approximately 50 positive sera and pool of approximately 30 negative sera, Figure 8) is listed as “proved to be the immunoreactive peptide; also recorded: significant immunoreactivity”. For the sequence AVERYLKDQQLLGC [2S01], the “immunoreactivity with HIV-1 antibodies” value in the test with antibodies to HIV-1 [1] is listed as “significantly less immunoreactive”. Turning to CSGKLICTTAVPWNAGC [3S51], in the test with antibodies to HIV-1 [1], the “immunoreactivity with HIV-1 antibodies” value was “higher reactivity; also recorded: Significant immunoreactivity”.

On to ERYLKDQQLLGIIVGC [2S02], for which, in the test with antibodies to HIV-1 [1], the “immunoreactivity with HIV-1 antibodies” value was “significantly less immunoreactive”.

Consider GCSGKLICTTAVPWNGC [2S11], for which the “immunoreactivity with HIV-1 antibodies” value in the test with antibodies to HIV-1 [1] is “higher reactivity; also recorded: Significant immunoreactivity”. On the same count and under the same terms, with GKLICTTAVPWNASWGC [3S55] the entry was “higher reactivity; also recorded: Significant immunoreactivity”; with “IKQLQARILAVERYLKDQQ [4S24, reference compound]”, “lower immunoreactivity”. As to IWGCSGKMICTTAVPGC [5S76], the “immunoreactivity with positive sera” value in the test on antibodies to HIV-1 [2] (98 sera containing antibodies to HIV-1, Figures 10B, 10C, 11) is reported as “strong immunoreactivity with some sera that reacted weakly in Figure 10B”. In addition, the “positive samples giving A492 less than 1.0” value in the test on antibodies to HIV-1 [2] (of 98 positive sera, Figure 11B) is “Five”.

As for KDQQLLGIWGCSGKLGC [2S04], in the test on antibodies to HIV-1 [1], the “immunoreactivity with HIV-1 antibodies” value is recorded as “Significant immunoreactivity”. Still for that read-out and setting: for KLICTTAVPWNASWSGC [2S15] the value was “higher reactivity; also recorded: Significant immunoreactivity”. The same measure, in the same setting: for LGIWGCSGKLICTTAGC [2S07] the value was “Significant immunoreactivity”. Turning to LLGIWGCSGKLICTTGC [2S06], the “immunoreactivity with HIV-1 antibodies” value with antibodies to HIV-1 [1] is listed as “Significant immunoreactivity”. On the same count and under the same terms, for QQLLGIWGCSGKLICGC [3S36] the value was “Significant immunoreactivity”; for “RILAVERYLKDQQLLGIWGCSGKLIC [4S25, reference compound]”, “lower immunoreactivity; also recorded: lower or comparable immunoreactivity; also recorded: Significant immunoreactivity”.

With SGKLICTTAVPWNASGC [2S13], in the test on antibodies to HIV-1 [1], the “immunoreactivity with HIV-1 antibodies” value is recorded as “higher reactivity; also recorded: Significant immunoreactivity”.

For YLKDQQLLGIWGCSGC [2S03], in the test with antibodies to HIV-1 [1], the “immunoreactivity with HIV-1 antibodies” value was “significantly less immunoreactive”.

For the origin of these results see patent EP0449955B1, “SYNTHETIC HIV-LIKE PEPTIDES, THEIR COMPOSITIONS AND USES” (CLARITY TECHNOLOGIES INCORPORATED, priority 1988, dated 1996).
